What was measured:
[1] = tested on: acetylated histone 3 at Lys9 (AcH3K9); assay: HDAC activity in wild type neurons: Western blot of acetylated histone 3 (AcH3K9) in primary neuronal cultures; assay type: cell-based, mice; details: 2 h
Procedure: (§1) The cellular assay to determine HDAC activity was assessed by Western blot analysis using a specific antibody against acetylated histone 3 at Lys9 (AcH3K9, Cell Signalling).
Primary neuronal cultures derived from the hippocampus and cortex of embryonic day 16 of wild type mice were used. Tissue was triturated using glass pipettes until neurons were dissociated. Neurons were plated with serum-free neurobasal media with B27 supplement (Invitrogen, Gaithersburg, Md.) and 2 mM L-glutamine on poly-L-lysine-treated (0.1 mg/ml; Sigma) 35 mm dishes.
To determine the concentration-response curve effect of Vorinostat and Tadalafil, cell cultures of 15 days in vitro were treated at different concentrations (10, 100 and 500 nM) during 2 h (Table 5).
Thus, to determine if a synergistic effect on epigenetic mark (AcH3) exists when both compounds are combined, Vorinostat at 50 nM was combined with Tadalafil at different concentrations (12.5, 25, 50, 100 and 200 nM) during 2 h (Table 6).
(§2) Cells were collected in a buffer containing a cold lysis buffer with protease inhibitors (0.2 M NaCl, 0.1 M HEPES (4-(2-hydroxyethyl)-1-piperazineethanesulfonic acid), 10% glycerol, 200 mM NaF, 2 mM Na4P2O7, 5 mM EDTA (ethylenediaminetetraacetic acid), 1 mM EGTA (ethylene glycol tetraacetic acid), 2 mM DTT (dithiothreitol), 0.5 mM PMSF (phenylmethylsulfonyl fluoride), 1 mM Na3VO4 and Complete Protease Inhibitor Cocktail, Roche Diagnostics), centrifuged at 14,000×g 4° C. for 20 min and the supernatant was aliquoted and stored at −80° C. Total protein concentrations were determined using the BioRad Bradford protein assay (BioRad Laboratories).
Protein samples were mixed with Laemmli sample buffer, resolved onto SDS-polyacrylamide gels and transferred to nitrocellulose membrane. The membranes were blocked with 5% milk, 0.05% Tween-20 in PBS (Phosphate-Buffered Saline) or TBS (Tris-Buffered Saline) followed by overnight incubation with the following primary antibodies: rabbit polyclonal anti-acetylated Histone 3 (acetyl K9, Cell Signalling 1:1000), mouse monoclonal anti-actin (Sigma, 1:50000) in the corresponding buffer. Following two washes in TBS/Tween20 and one wash in TBS alone, immunolabeled protein bands were detected by using HRP-conjugated anti-rabbit or anti-mouse antibody (Santa Cruz; dilution 1:5000) following an enhanced chemiluminescence system (ECL, GE Healthcare Bioscience, Buckinghamshire, UK), and autoradiographic exposure to HyperfilmtECL (GE Healthcare Bioscience). Quantity One™ software v.4.6.3 (Bio-Rad) was used for quantification.

[2] = tested on: Tg2576 mice; assay: Fear Conditioning (FC) test, memory function in aged-Tg2576 mice; assay type: in vivo; details: Tg2576 mice (14-16 month), chronic treatment; Vorinostat 12.5 mg/kg i.p., Tadalafil 1 mg/kg p.o.; mean ± standard deviation
Procedure: (§3) The effect on memory function of Vorinostat (12.5 mg/kg, i.p.), Tadalafil (1 mg/Kg p.o.) and the combination (Vorinostat, 12.5 mg/Kg+Tadalafil 1 mg/Kg) was studied in Tg2576 mice (14-16 month) after a chronic treatment of 2-5 weeks by using two different behavioral tasks: the Fear Conditioning (FC) and the Morris water maze (MWM) tests. Tg2576 mice express the human 695-aa isoform of APP (hAPP) containing the Swedish double mutation, which favours AP production.
The behavioural procedure of FC task involved three phases: habituation, training and testing. During habituation phase, mice were habituated to the conditioning box (context) for 5 min with no stimuli presented. 24 hours later (training phase), mice were placed in the training chamber and allowed to explore for 2 min, afterward, a footshock (0.3 mA) unconditioned stimulus was administered (2 s) and 30 s after mice were returned to their home cage.
Mice were returned to the conditioning chamber 24 h after training and allowed to explore the context for 2 min, during which freezing behavior was recorded (contextual long term memory). Freezing scores were expressed as percentages. The conditioning procedure was carried out in a StartFear system (Panlab S.L., Barcelona, Spain) that allows recording and analysis of the signal generated by the animal movement through a high sensitivity Weight Transducer system. […]

[3] = tested on: Tg2576 mice; assay: Morris water maze (MWM) test, memory retention in aged-Tg2576 mice; assay type: in vivo; details: Retention phase of MWM test, day 9th, Vorinostat 12.5 mg/Kg i.p., Tadalafil 1 mg/Kg p.o., mean ± standard deviation
Procedure: as §3
The MWM and the revesal_MWM test was used to evaluate spatial memory as previously described (Ricobaraza et al., 2009; Neuropsychopharmacology, 34, 1721-1732 and Ricobaraza et al., 2011, Frontiers in bioscience, 3, 1375-84). After 3 weeks of treatments, groups of animals underwent spatial reference learning and memory testing in the MWM. The water maze was a circular pool (diameter 1.2 m) filled with water maintained at 20° C. and made opaque by the addition of non-toxic white paint. […] In the probe trials the platform was removed from the pool, and the percentage of time spent in the quadrant where the platform was previously set was recorded.
(§4) All trials were monitored by a camera above the center of the pool connected to a SMART-LD program (Panlab S.L., Barcelona, Spain) for subsequent analysis of escape latencies, swimming speed, path length and percent time spent in each quadrant of the pool during probe trials. […]

[4] = tested on: Tg2576 mice; assay: Reversal MWM after a 4-weeks wash-out period in aged-Tg2576 mice; assay type: in vivo; details: Retention phase of Reversal_MWM test, day 6th, after 4-weeks wash-out, Vorinostat 12.5 mg/Kg, Tadalafil 1 mg/Kg, mean ± standard deviation
Procedure: as §3
The MWM and the revesal_MWM test was used to evaluate spatial memory as previously described (Ricobaraza et al., 2009; Neuropsychopharmacology, 34, 1721-1732 and Ricobaraza et al., 2011, Frontiers in bioscience, 3, 1375-84). After 3 weeks of treatments, groups of animals underwent spatial reference learning and memory testing in the MWM. […] In the probe trials the platform was removed from the pool, and the percentage of time spent in the quadrant where the platform was previously set was recorded.
After a 4-weeks wash-out period of the drugs, a reversal phase of MWM was carried out. […] Memory retention was analyzed in a probe at day 6.
as §4

[5] = tested on: Aβ42; assay: Aβ42 levels in hippocampal extracts of treated Tg2576 mice (sandwich ELISA); assay type: in vivo; details: Vorinostat 12.5 mg/Kg, Tadalafil 1 mg/Kg, mean ± standard deviation
Procedure: (§5) Amyloid and Tau pathology was analyzed in the hippocampus of treated animals. Hippocampus was weighed and homogenized in 8 mass of ice-cold buffer containing a cold lysis buffer with protease inhibitors (0.2 M NaCl, 0.1 M HEPES (4-(2-hydroxyethyl)-1-piperazineethanesulfonic acid), 10% glycerol, 200 mM NaF, 2 mM Na4P2O7, 5 mM EDTA (ethylenediaminetetraacetic acid), 1 mM EGTA (ethylene glycol tetraacetic acid), 2 mM DTT (dithiothreitol), 0.5 mM PMSF (phenylmethylsulfonyl fluoride), 1 mM Na3VO4 and Complete Protease Inhibitor Cocktail, Roche Diagnostics), centrifuged at 14,000×g 4° C. for 20 min and the supernatant was aliquoted and stored at −80° C. Total protein concentrations were determined using the BioRad Bradford protein assay (BioRad Laboratories).
Aβ42 levels in hippocampal extracts were measured with the 3D6 antibody (specific for amino acids 1-5 of Aβ; kit from Biosource, USA) using a sensitive sandwich ELISA kit from Biosource (Camarillo, Ca, USA) according to the manufacturer's instructions.

[6] = tested on: pTau; assay: pTau in the hippocampus of treated Tg2576 mice (western blot); assay type: in vivo; details: Vorinostat 12.5 mg/Kg, Tadalafil 1 mg/Kg, mean ± standard deviation
Procedure: as §5
pTau was analyzed by western blot in the hippocampus of treated animals. […] Following two washes in TBS/Tween20 and one wash in TBS alone, immunolabelled protein bands were detected using HRP-conjugated anti-rabbit or anti-mouse antibodies (diluted 1:5,000 Santa Cruz). Binding was visualised by enhanced chemiluminescence (ECL, GE Healthcare Bioscience, Buckinghamshire, UK) and autoradiographic exposure to Hyperfilm ECL (GE Healthcare Bioscience), using Quantity One™ software v.4.6.3 (Bio-Rad) for quantification.

[7] = tested on: acetylated histone 3 at Lys9 (AcH3K9); assay: HDAC activity in SHSY-5Y: Western blot of acetylated histone 3 (AcH3K9); assay type: cell-based, human; details: Vorinostat 10 nM alone, 2 hours, SHSY-5Y cell line
Procedure: as §1
A human neuroblastoma cell line (SHSY-5Y) was also used. Cell line was obtained from ATCC (CRL-2266) (Biedler et al., Cancer Research, 38, 3751-3757 1978) and cultured in 35 mm plates (Becton Dickinson, N.J.). The cells were grown to 90% confluence at 37° C. in an atmosphere of 5% CO2 and in Dulbecco's modified Eagle's medium supplemented with Glutamax (Gibco, Invitrogen, CA), 100 units/ml penicillin/streptomycin, 1× Minimum Essential Media (MEM) non essential amino acids and 10% fetal bovine serum (Gibco, Invitrogen, CA).
as §2, with “Laboratories). […]” for “Laboratories).”

| SMILES | AcH3 increment vs basal (no treatment) ([1]; compound alone 10 nM) | AcH3 increment vs basal (no treatment) ([1]; compound alone 100 nM) | AcH3 increment vs basal (no treatment) ([1]; compound alone 500 nM) | FC (% freezing) [2] | MWM (% of time on right quadrant) [3] | RMWM (% of time on right quadrant) [4] | Aβ42 levels in hippocampus [5] | pTau/tTau in hippocampus [6] | AcH3 increment vs basal (no treatment) ([1]; Vorinostat 50 nM alone) | AcH3 increment vs basal (no treatment) [7] |
| --- | --- | --- | --- | --- | --- | --- | --- | --- | --- | --- |
| CN1CC(=O)N2[C@H](c3ccc4c(c3)OCO4)c3[nH]c4ccccc4c3C[C@@H]2C1=O [Tadalafil, (6R,12aR)-6-(1,3-Benzodioxol-5-yl)-2-methyl-2,3,6,7,12,12a-hexahydropyrazino[1′,2′: 1,6]pyrido[3,4-b]indole-1,4-dione] | + (basal ×1 means no increment (+)) | + (basal ×1 means no increment (+)) | + (basal ×1 means no increment (+)) | 41.38 ± 12.3% | 23.3 ± 7.63% | 21.26 ± 3.40% | 14.89 ± 5.17 pg/mg | 0.32 ± 0.03 | – | – |
| O=C(CCCCCCC(=O)Nc1ccccc1)NO [Vorinostat, 8-(hydroxyamino)-8-oxo-N-phenyl-octanamide] | + (basal ×1 means no increment (+)) | ++ (basal ×2≦(++)) | ++ (basal ×2≦(++)) | 51.17 ± 14.8% | 16.3 ± 4.69% | 14.88 ± 5.88% | 12.81 ± 4.68 pg/mg | 0.56 ± 0.09 | + (basal ×1 means no increment (+)) | + (basal ×1 means no increment (+)) |

— patent US20170231931A1, “PRODUCTS FOR THE TREATMENT AND PREVENTION OF NEUROLOGICAL DISORDERS COURSING WITH A COGNITION DEFICIT OR IMPAIRMENT, AND OF NEURODEGENERATIVE DISEASES” (FUNDACIÓN PARA LA INVESTIGACIÓN MÉDICA APLICADA, priority 2014, published 2017)
